According to US12291518B2, “Thyroid hormone receptor agonists and use thereof” (Eccogene Inc., priority 2020, dated 2025):
Where two headings read alike, the source gives them in different places.

Key:
[1] = molecular target: T1, THR beta-LBD (Homo sapiens, UniProt P10828); experiment: THR-β Coactivator Peptide Recruitment Assay (LanthaScreen TR-FRET); assay type: biochemical
T1 construct: THR beta-LBD (the final concentration is 0.5 nM) was added to the 384-well assay plate; purchased Invitrogen PV4686
T1 sequence (P10828 217-461 limits assumed): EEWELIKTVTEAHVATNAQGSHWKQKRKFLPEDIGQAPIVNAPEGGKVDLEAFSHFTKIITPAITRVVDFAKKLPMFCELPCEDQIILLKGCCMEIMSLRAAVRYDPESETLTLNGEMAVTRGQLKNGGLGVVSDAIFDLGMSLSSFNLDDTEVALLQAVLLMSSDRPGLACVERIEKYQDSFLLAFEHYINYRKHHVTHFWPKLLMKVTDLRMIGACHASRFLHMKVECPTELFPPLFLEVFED
In short: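 GST-tagged THR beta-LBD (0.5 nM) with test compound recruits fluorescein-SRC2-2 coactivator peptide (0.1 nM), detected with Tb-anti-GST antibody (2 nM).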

[2] = molecular target: T2, THR alpha-LBD (Homo sapiens, UniProt P10827); experiment: THR-α Coactivator Peptide Recruitment Assay (LanthaScreen TR-FRET); assay type: biochemical
T2 construct: except that THR alpha-LBD of a final concentration 0.25 nM was used; purchased Invitrogen PV4687
In short: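 TR-FRET coactivator recruitment with THR alpha-LBD at 0.25 nM final, Fluorescein-SRC2-2 peptide 0.1 nM and Tb-labeled anti-GST antibody 2 nM; 2 h incubation at room temperature. 520/495 nm emission ratio fitted to a four-parameter sigmoidal curve to give EC50.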

[3] = TR-FRET coactivator recruitment, THR beta-LBD 0.5 nM
[4] = TR-FRET coactivator recruitment, THR beta-LBD 0.5 nM, read-out: THRβ EC50
[5] = TR-FRET coactivator recruitment, THR alpha-LBD 0.25 nM
[6] = TR-FRET coactivator recruitment, THR alpha-LBD 0.25 nM, read-out: THRα EC50

T2 sequence (P10827 163-410 isoform P10827-2 limits assumed, other chains not shown): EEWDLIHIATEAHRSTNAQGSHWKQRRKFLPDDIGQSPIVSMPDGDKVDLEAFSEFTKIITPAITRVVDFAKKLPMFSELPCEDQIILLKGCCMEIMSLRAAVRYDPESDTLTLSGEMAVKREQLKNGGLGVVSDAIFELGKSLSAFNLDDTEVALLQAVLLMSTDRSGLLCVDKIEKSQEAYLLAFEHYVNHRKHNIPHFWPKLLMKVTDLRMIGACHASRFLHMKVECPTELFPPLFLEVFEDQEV

`O=C(CNS(=O)(=O)c1cc(Oc2c(Cl)cc(-n3nc(C(F)F)c(=O)[nH]c3=O)cc2Cl)ccc1O)NC1CCC1` [Compound 62, N-cyclobutyl-2-((5-(2,6-dichloro-4-(6-(difluoromethyl)-3,5-dioxo-4,5-dihydro-1,2,4-triazin-2(3H)-yl)phenoxy)-2-hydroxyphenyl)sulfonamido)acetamide] was tested, and the “THRβ Emax” value [1, 3] was “B (75~90)”, the EC50 [1, 4] was 0.002 to 0.02 µM and the “THRα Emax” value [2, 5] was “B (40~85)”. The EC50 [2, 6] was 0.2 to 1 µM.
`O=C(CNS(=O)(=O)c1cc(Oc2c(Cl)cc(-n3nc(C(F)F)c(=O)[nH]c3=O)cc2Cl)ccc1O)N1CCC1` [Compound 63, N-[2-(azetidin-1-yl)-2-oxo-ethyl]-5-[2,6-dichloro-4-[6-(difluoromethyl)-3,5-dioxo-1,2,4-triazin-2-yl]phenoxy]-2-hydroxy-benzenesulfonamide] was tested, and the “THRβ Emax” value [1, 3] was “B (75~90)”, the EC50 [1, 4] was 0.02 to 0.1 µM and the “THRα Emax” value [2, 5] was “B (40~85)”. It also gave an EC50 [2, 6] of over 1 µM.
For `O=c1[nH]c(=O)n(-c2cc(Cl)c(Oc3cnc(O)c(S(=O)(=O)NC4CCC4)c3)c(Cl)c2)nc1C(F)F` [Compound 64, N-cyclobutyl-5-[2,6-dichloro-4-[6-(difluoromethyl)-3,5-dioxo-1,2,4-triazin-2-yl]phenoxy]-2-hydroxy-pyridine-3-sulfonamide], the “THRβ Emax” value [1, 3] was “B (75~90)”, the EC50 [1, 4] was over 0.1 µM and the “THRα Emax” value [2, 5] was “C (<40)”. The EC50 [2, 6] was over 1 µM.
With `COCCNS(=O)(=O)c1cc(Oc2c(Cl)cc(-n3nc(C(F)F)c(=O)[nH]c3=O)cc2Cl)ccc1O` [Compound 65, 5-[2,6-dichloro-4-[6-(difluoromethyl)-3,5-dioxo-1,2,4-triazin-2-yl]phenoxy]-2-hydroxy-N-(2-methoxyethyl) benzenesulfonamide] the “THRβ Emax” value [1, 3] was “B (75~90)”, the EC50 [1, 4] was under 0.002 µM and the “THRα Emax” value [2, 5] was “B (40~85)”. It also gave an EC50 [2, 6] of 0.002 to 0.2 µM.
For `O=c1[nH]c(=O)n(-c2cc(Cl)c(Oc3ccc(O)c(S(=O)(=O)N[C@@H]4CC[C@H](O)C4)c3)c(Cl)c2)nc1C(F)F` [Compound 66, 5-(2,6-dichloro-4-(6-(difluoromethyl)-3,5-dioxo-4,5-dihydro-1,2,4-triazin-2(3H)-yl)phenoxy)-2-hydroxy-N-((1R,3S)-3-hydroxycyclopentyl)benzenesulfonamide], the “THRβ Emax” value [1, 3] was “C (<75)”, the EC50 [1, 4] was 0.002 to 0.02 µM and the “THRα Emax” value [2, 5] was “B (40~85)”. It also gave an EC50 [2, 6] of 0.002 to 0.2 µM.
In the case of `O=c1[nH]c(=O)n(-c2cc(Cl)c(Oc3ccc(O)c(S(=O)(=O)N[C@H]4CC[C@@H](O)C4)c3)c(Cl)c2)nc1C(F)F` [Compound 67, 5-(2,6-dichloro-4-(6-(difluoromethyl)-3,5-dioxo-4,5-dihydro-1,2,4-triazin-2(3H)-yl)phenoxy)-2-hydroxy-N-((1S,3R)-3-hydroxycyclopentyl)benzenesulfonamide], the “THRβ Emax” value [1, 3] is reported as “B (75~90)”, the EC50 [1, 4] is reported as 0.002 to 0.02 µM and the “THRα Emax” value [2, 5] is reported as “B (40~85)”. The EC50 [2, 6] was 0.002 to 0.2 µM.
For `NS(=O)(=O)c1cc(Oc2c(Cl)cc(-n3nc(C(F)F)c(=O)[nH]c3=O)cc2Cl)ccc1O` [Compound 68, 5-[2,6-dichloro-4-[6-(difluoromethyl)-3,5-dioxo-1,2,4-triazin-2-yl]phenoxy]-2-hydroxy-benzene sulfonamide], the “THRβ Emax” value [1, 3] was “B (75~90)”, the EC50 [1, 4] was 0.002 to 0.02 µM and the “THRα Emax” value [2, 5] was “A (85~110)”. It also gave an EC50 [2, 6] of 0.002 to 0.2 µM.
For `N#C[C@H]1C[C@@H](NS(=O)(=O)c2cc(Oc3c(Cl)cc(-n4nc(C(F)F)c(=O)[nH]c4=O)cc3Cl)ccc2O)C1` [Compound 69, N-((1s,3s)-3-cyanocyclobutyl)-5-(2,6-dichloro-4-(6-(difluoromethyl)-3,5-dioxo-4,5-dihydro-1,2,4-triazin-2(3H)-yl)phenoxy)-2-hydroxybenzenesulfonamide], the “THRβ Emax” value [1, 3] was “A (90~110)”, the EC50 [1, 4] was under 0.002 µM and the “THRα Emax” value [2, 5] was “A (85~110)”. The EC50 [2, 6] was 0.002 to 0.2 µM.
With `O=c1[nH]c(=O)n(-c2cc(Cl)c(Oc3ccc(O)c(S(=O)(=O)NC4(CO)CC4)c3)c(Cl)c2)nc1C(F)F` [Compound 70, 5-(2,6-dichloro-4-(6-(difluoromethyl)-3,5-dioxo-4,5-dihydro-1,2,4-triazin-2(3H)-yl)phenoxy)-2-hydroxy-N-(1-(hydroxymethyl)cyclopropyl)benzenesulfonamide] the “THRβ Emax” value [1, 3] was “B (75~90)”, the EC50 [1, 4] was 0.002 to 0.02 µM and the “THRα Emax” value [2, 5] was “B (40~85)”. For the same molecule, the EC50 [2, 6] was 0.002 to 0.2 µM.
For `O=C(NC1CC1)C1(NS(=O)(=O)c2cc(Oc3c(Cl)cc(-n4nc(C(F)F)c(=O)[nH]c4=O)cc3Cl)ccc2O)CC1` [Compound 71, N-cyclopropyl-1-[[5-[2,6-dichloro-4-[6-(difluoromethyl)-3,5-dioxo-1,2,4-triazin-2-yl]phenoxy]-2-hydroxy-phenyl]sulfonylamino] cyclopropane carboxamide], the “THRβ Emax” value [1, 3] was “A (90~110)”, the EC50 [1, 4] was 0.002 to 0.02 µM and the “THRα Emax” value [2, 5] was “B (40~85)”. It also gave an EC50 [2, 6] of 0.002 to 0.2 µM.
`CS(=O)(=O)NC1CN(S(=O)(=O)c2cc(Oc3c(Cl)cc(-n4nc(C(F)F)c(=O)[nH]c4=O)cc3Cl)ccc2O)C1` [Compound 73, N-[l-[5-[2,6-dichloro-4-[6-(difluoromethyl)-3,5-dioxo-1,2,4-triazin-2-yl]phenoxy]-2-hydroxy-phenyl]sulfonylazetidin-3-yl] methane sulfonamide] was tested, and the “THRβ Emax” value [1, 3] was “C (<75)”, the EC50 [1, 4] was 0.002 to 0.02 µM and the “THRα Emax” value [2, 5] was “B (40~85)”. For the same molecule, the EC50 [2, 6] was 0.002 to 0.2 µM.
For `O=c1[nH]c(=O)n(-c2cc(Cl)c(Oc3ccc(O)c(S(=O)(=O)NC4CC5(CC(O)C5)C4)c3)c(Cl)c2)nc1C(F)F` (stereo not shown) [Compound 74, 5-[2,6-dichloro-4-[6-(difluoromethyl)-3,5-dioxo-1,2,4-triazin-2-yl]phenoxy]-2-hydroxy-N-(2-hydroxyspiro [3.3]heptan-6-yl) benzene sulfonamide], the “THRβ Emax” value [1, 3] was “B (75~90)”, the EC50 [1, 4] was 0.02 to 0.1 µM and the “THRα Emax” value [2, 5] was “B (40~85)”. It also gave an EC50 [2, 6] of 0.2 to 1 µM.
`O=c1[nH]c(=O)n(-c2cc(Cl)c(Oc3ccc(O)c(S(=O)(=O)N4CC[C@@H](O)C4)c3)c(Cl)c2)nc1C(F)F` [Compound 76, (R)-2-(3,5-dichloro-4-(4-hydroxy-3-((3-hydroxypyrrolidin-1-yl)sulfonyl)phenoxy)phenyl)-6-(difluoromethyl)-1,2,4-triazine-3,5(2H,4H)-dione] was tested, and the “THRβ Emax” value [1, 3] was “B (75~90)”, the EC50 [1, 4] was under 0.002 µM and the “THRα Emax” value [2, 5] was “A (85~110)”. It also gave an EC50 [2, 6] of 0.002 to 0.2 µM.
With `O=c1[nH]c(=O)n(-c2cc(Cl)c(Oc3ccc(O)c(S(=O)(=O)N4CC[C@H](O)C4)c3)c(Cl)c2)nc1C(F)F` [Compound 77, (S)-2-(3,5-dichloro-4-(4-hydroxy-3-((3-hydroxypyrrolidin-1-yl)sulfonyl)phenoxy)phenyl)-6-(difluoromethyl)-1,2,4-triazine-3,5(2H,4H)-dione] the “THRβ Emax” value [1, 3] was “B (75~90)”, the EC50 [1, 4] was under 0.002 µM and the “THRα Emax” value [2, 5] was “A (85~110)”. For the same molecule, the EC50 [2, 6] was 0.002 to 0.2 µM.
`O=C(N[C@H]1C[C@H](NS(=O)(=O)c2cc(Oc3c(Cl)cc(-n4nc(C(F)F)c(=O)[nH]c4=O)cc3Cl)ccc2O)C1)C1CC1` [Compound 78, N-[3-[[5-[2,6-dichloro-4-[6-(difluoromethyl)-3,5-dioxo-1,2,4-triazin-2-yl]-phenoxy]-2-hydroxy-phenyl]-sulfonylamino]-cyclobutyl]-cyclopropanecarboxamide] was tested, and the EC50 [1] was 0.02 to 0.1 µM, the “THRβ Emax” value [1, 3] was “C (<75)” and the EC50 [2] was 0.2 to 1 µM. For the same molecule, the “THRα Emax” value [2, 5] was “B (40~85)”.
With `N#CC12CC(NS(=O)(=O)c3cc(Oc4c(Cl)cc(-n5nc(C(F)F)c(=O)[nH]c5=O)cc4Cl)ccc3O)(C1)C2` [Compound 79, N-(3-cyanobicyclo[1.1.1]pentan-1-yl)-5-(2,6-dichloro-4-(6-(difluoromethyl)-3,5-dioxo-4,5-dihydro-1,2,4-triazin-2 (3H)-yl)phenoxy)-2-hydroxybenzenesulfonamide] the “THRβ Emax” value [1, 3] was “B (75~90)”, the EC50 [1, 4] was under 0.002 µM and the “THRα Emax” value [2, 5] was “A (85~110)”. For the same molecule, the EC50 [2, 6] was 0.002 to 0.2 µM.
In the case of `O=c1[nH]c(=O)n(-c2cc(Cl)c(Oc3ccc(O)c(S(=O)(=O)NCC4(O)CC4)c3)c(Cl)c2)nc1C(F)F` [Compound 80, 5-(2,6-dichloro-4-(6-(difluoromethyl)-3,5-dioxo-4,5-dihydro-1,2,4-triazin-2(3H)-yl)phenoxy)-2-hydroxy-N-((1-hydroxycyclopropyl)methyl)benzenesulfonamide], the “THRβ Emax” value [1, 3] is reported as “A (90~110)”, the EC50 [1, 4] is reported as 0.002 to 0.02 µM and the “THRα Emax” value [2, 5] is reported as “A (85~110)”. The EC50 [2, 6] was 0.002 to 0.2 µM.
With `O=c1[nH]c(=O)n(-c2cc(Cl)c(Oc3ccc(O)c(S(=O)(=O)NC45CC(O)(C4)C5)c3)c(Cl)c2)nc1C(F)F` [Compound 81, 5-(2,6-dichloro-4-(6-(difluoromethyl)-3,5-dioxo-4,5-dihydro-1,2,4-triazin-2(3H)-yl)phenoxy)-2-hydroxy-N-(3-hydroxybicyclo[1.1.1]pentan-1-yl)benzenesulfonamide] the “THRβ Emax” value [1, 3] was “A (90~110)”, the EC50 [1, 4] was 0.002 to 0.02 µM and the “THRα Emax” value [2, 5] was “A (85~110)”. The EC50 [2, 6] was 0.002 to 0.2 µM.
With `CS(=O)(=O)[C@H]1C[C@H](NS(=O)(=O)c2cc(Oc3c(Cl)cc(-n4nc(C(F)F)c(=O)[nH]c4=O)cc3Cl)ccc2O)C1` [Compound 82, 5-(2,6-dichloro-4-(6-(difluoromethyl)-3,5-dioxo-4,5-dihydro-1,2,4-triazin-2(3H)-yl)phenoxy)-2-hydroxy-N-((1r,3r)-3-(methylsulfonyl)cyclobutyl)benzenesulfonamide] the “THRβ Emax” value [1, 3] was “B (75~90)”, the EC50 [1, 4] was 0.02 to 0.1 µM and the “THRα Emax” value [2, 5] was “B (40~85)”. For the same molecule, the EC50 [2, 6] was over 1 µM.
